# Results taken from patent US9067894B1, “Compound, composition, and method of activating GIRK potassium channel and use of same for treating conditions of interest” (Vanderbilt University, priority 2013, dated 2015).
# Where “and” joins values, the source holds several entries; their conditions need not be identical. Equal entries are not always repeated.
# Tests used:
# GIRK1/2 = molecular target: T1, GIRK1/2 (Homo sapiens, UniProt P48051+P48549); assay: Thallium flux, pertussis toxin-treated cells co-expressing mGlu8 and GIRK1/2; format: cell-based; parameters: host or cells: HEK-293; conditions: 600 ng/ml pertussis toxin; VU0456810 10 μM, glutamate 100 μM
# T1 sequence (P48549 1-501): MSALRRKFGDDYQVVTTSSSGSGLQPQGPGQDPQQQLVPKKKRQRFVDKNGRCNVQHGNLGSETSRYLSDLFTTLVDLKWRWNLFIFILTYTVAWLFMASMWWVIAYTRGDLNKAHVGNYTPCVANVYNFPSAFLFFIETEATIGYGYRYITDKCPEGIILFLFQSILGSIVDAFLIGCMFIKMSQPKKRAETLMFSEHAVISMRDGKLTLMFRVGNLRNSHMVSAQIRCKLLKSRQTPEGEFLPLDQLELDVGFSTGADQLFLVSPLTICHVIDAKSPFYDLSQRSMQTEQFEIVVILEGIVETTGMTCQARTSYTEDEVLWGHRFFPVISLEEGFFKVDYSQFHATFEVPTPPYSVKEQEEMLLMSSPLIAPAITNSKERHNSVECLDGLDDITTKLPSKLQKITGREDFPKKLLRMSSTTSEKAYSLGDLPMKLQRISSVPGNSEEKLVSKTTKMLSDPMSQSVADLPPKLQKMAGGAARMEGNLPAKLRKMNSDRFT
# T1 sequence (P48051 1-423): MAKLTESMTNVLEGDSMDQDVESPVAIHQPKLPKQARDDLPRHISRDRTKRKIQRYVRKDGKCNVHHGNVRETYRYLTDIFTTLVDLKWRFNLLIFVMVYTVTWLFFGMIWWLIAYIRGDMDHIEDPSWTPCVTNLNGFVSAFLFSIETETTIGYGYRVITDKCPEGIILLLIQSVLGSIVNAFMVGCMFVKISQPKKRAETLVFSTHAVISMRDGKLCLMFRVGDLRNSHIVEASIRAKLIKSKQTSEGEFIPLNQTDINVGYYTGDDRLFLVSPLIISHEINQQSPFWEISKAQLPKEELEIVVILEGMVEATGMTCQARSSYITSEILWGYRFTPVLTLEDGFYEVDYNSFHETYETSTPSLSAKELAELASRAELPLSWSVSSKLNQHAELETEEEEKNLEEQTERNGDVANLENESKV
# From the text: Cell Line Construction and Cell Culture. HEK-293 cells co-expressing human GIRK1/2 and rat mGlu8 were generated as previously described (Niswender et al., 2008). A HEK-293 cell line (ATCC, Manassas, Va.) expressing human GIRK1 and human GIRK2 was constructed by transfecting HEK-293 cells with GIRK1 and GIRK2 (Origene, Rockville, Md.) cloned into the pBudCE4.1 vector (Life Technologies, Carlsbad, Calif.) using FuGene 6 (Promega, Madison, Wis.) transfection reagent. Unless otherwise noted, other ion channel-expressing cells were prepared by transfecting HEK-293 cells with individual or combinations of subunits: GIRK1, pCMV6-A-BSD; GIRK2, pCMV6-A-puro; GIRK3, pCMV6-A-hygro; GIRK4, pCMV6-A-AC; Kv7.4, pIRESneo3. The Kir2.1 and hERG-expressing cell lines were made by transfecting T-REx-293 cells (Life Technologies, Carlsbad, Calif.) with Kir2.1 and Kv11.1, respectively, cloned into pcDNA5TO. Monoclonal cell lines were produced by limiting-dilution cloning of antibiotic-resistant cells and functional selection using the thallium flux assay described below. Unless otherwise noted, cells were maintained in Minimal Essential Medium, Alpha Medium (Mediatech, Manassas, Va.) supplemented with 10% fetal bovine serum (Sigma-Aldrich, Saint Louis, Mo.) and GlutaGro (Mediatech, Manassas, Va.), referred to henceforth as cell culture medium. […]
# GIRK = conditions: read-out: potency / reported EC50 as GIRK activator; cited from earlier work
# [1] = Maximal electroshock (MES) model of epilepsy; format: in vivo, mouse; conditions: mice, i.p.; VU0456810 60 mg/kg, sodium valproate 150 mg/kg; vs vehicle
# Experimental: MES stimulation was applied, 30 minutes after injection, through transauricular (ear-clip) electrodes from an electroshock apparatus, HSE Shock Stimulator Type 221, (Harvard Apparatus, Holliston, Mass.) using the following parameters: 100-mA fixed current, a 50-60-Hz pulse frequency, a 0.6-ms pulse width and a 0.3-s stimulus duration. Animals were restrained by hand when applying the electrodes and released at the moment of stimulation to permit observation of the seizure throughout its entire course. Upon completion of the electrical stimulus, the amount of time until death was recorded. […] In this modified MES test, the electrical stimulus that was applied was sufficient to induce seizures and death from maximal seizure in 100% of the control mice.
# (§1) In all cases, experiments were conducted in a blind manner with respect to the experimenters. Data were evaluated in Excel using one-tailed, unpaired Student's t-test, assuming populations with unequal variance.
# [2] = Pentylenetetrazol (PTZ)-induced seizure model; format: in vivo, mouse; conditions: mice, i.p.; VU0456810 60 mg/kg, sodium valproate 150 mg/kg; PTZ 40 mg/kg; 20 minute timeframe
# Experimental: After thirty minutes, PTZ was administered intraperitoneally (i.p., 40 mg/kg). Immediately following administration of PTZ, the amount of time elapsed before the first occurrence of tremors, tonic-clonic seizures, convulsion, and death was recorded. All mice were subject to a 20-minute post-[…] cutoff.
# as §1
compound,measurement,setting,value
"N[C@@H](CCC(=O)O)C(=O)O [glutamate, reference compound]",effect of pertussis toxin treatment on evoked thallium flux,GIRK1/2,abolishing
C[C@@H]1O[C@@H](O[C@H]2[C@H](Oc3cc(O)c4c(c3)O[C@H](c3ccc(O)cc3)CC4=O)O[C@H](CO)[C@@H](O)[C@@H]2O)[C@H](O)[C@H](O)[C@H]1O [naringin],EC50,GIRK,~100 µM and > 100 µM
"CCCC(CCC)C(=O)[O-].[Na+] [sodium valproate, reference compound]",latency of seizure onset,[1],highly significant delays in seizure onset
same,animals experiencing convulsions from PTZ treatment,[2],significant decrease
same,animals surviving PTZ treatment,[2],significant increase
